This note sets out measurements from patent publication US20100240040A1, “METHOD FOR SCREENING FOR SELECTIVE MODULATOR OF THE NF-KB PATHWAY ACTIVATION” (INSTITUT PASTEUR, priority 2007, published 2010).

The target in experiment [1] is T1, CC2-LZ dimer (Biot-CC2-LZ/His-CC2-LZ) (Mus musculus, UniProt O88522).
T1 construct: made in house; Biot-CC2-LZ by chemical synthesis
The experiment is described as follows: HTRF assay, CC2-LZ dimerization induced by ubiquitin binding. Conditions: added to Biot-CC2-LZ/His-CC2-LZ mixture at nM concentration. The source says: (§1) The Homogeneous Time Resolved Fluorescence (HTRF®) assay reagents anti-(His)6 monoclonal antibody labeled with XL665 (MABHis6-XL) and streptavidin-Europium cryptate (streptavidin-EuK) were purchased from CIS-Bio. The His-CC2-LZ peptide (SEQ ID NO: 30 and 31) was purified as described in Agou et al., 2004a and the biotin tagged CC2-LZ peptide (SEQ ID NO: 28 and 29) was chemically synthezised as described in Wyler et al., 2007.
All measurements of fluorescence resonance energy transfer (FRET) were performed using the microplate reader Mithras LB 940 (Berthold Technologies). HTRF® principle
In HTRF experiments, the pure His-CC2-LZ protein was labeled by anti-His-XL665 mAb and biot-CC2-LZ was labeled by streptavidin-EuK. […] Upon excitation of Europium cryptate at 320 nm, FRET occurs between these two fluorophores, and XL665 re-emits a specific long-lived fluorescence at 665 nm.
All experiments were carried out in a black microplate Greiner (200 μl) at 25° C. The excitation wavelength was 320 nm and the fluorescence emissions were measured at 620 nm and at 665 nm to normalize the specific signal. Fluorescence emission was recorded at both wavelengths after an 50 μs delay, which reduces background noise introduced by the media and the free acceptor molecules. The FRET signal is calculated using the following equation: […]

In another experiment the target is CC2-LZ (Mus musculus, UniProt O88522). The experiment is described as follows: Affinity of CC2-LZ dimerization. It is filed as binding.
In a further experiment the target is T2, Biot-CC2-LZ (Mus musculus, UniProt O88522).
T2 construct: made in house; host or cells: chemical synthesis
The experiment is described as follows: HTRF assay, complex with Biot-CC2-LZ (negative and positive controls). The class given is binding. Conditions: each subunit of CC2-LZ at nM concentration, no ubiquitin.
From the text: as §1
In HTRF experiments, the pure His-CC2-LZ protein was labeled by anti-His-XL665 mAb and biot-CC2-LZ was labeled by streptavidin-EuK. Dimerization of His-CC2-LZ and Biot-CC2-LZ leads the donor (Steptavidin-EuK) and the acceptor (anti-His-XL665) into close proximity. Upon excitation of Europium cryptate at 320 nm, FRET occurs between these two fluorophores, and XL665 re-emits a specific long-lived fluorescence at 665 nm.
All experiments were carried out in a black microplate Greiner (200 μl) at 25° C. The excitation wavelength was 320 nm and the fluorescence emissions were measured at 620 nm and at 665 nm to normalize the specific signal. Fluorescence emission was recorded at both wavelengths after an 50 μs delay, which reduces background noise introduced by the media and the free acceptor molecules. The FRET signal is calculated using the following equation:
ΔF=[(R−Rneg)/Rneg]*100 (1) […]
(Time-resolved FRET reads energy transfer from a long-lived donor to a nearby acceptor.)

The term Kd denotes the concentration at which binding is half-saturated.

T1 sequence (O88522 with tags, fused parts or gaps, one chain of several): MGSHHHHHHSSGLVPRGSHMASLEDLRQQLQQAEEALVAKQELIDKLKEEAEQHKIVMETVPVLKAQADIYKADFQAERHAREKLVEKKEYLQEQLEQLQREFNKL
Sequence of CC2-LZ (O88522 250-339 limits assumed): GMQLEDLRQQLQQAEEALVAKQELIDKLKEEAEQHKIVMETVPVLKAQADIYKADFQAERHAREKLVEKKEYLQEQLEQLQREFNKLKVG

As to GST: GST protein alone, control, the “FRET signal (in words)” value in experiment [1] is “no FRET signal was detected”.

Regarding “LEDLRQQLQQAEEALVAKQELIDKLKEEAEQHKIVMETVPVLKAQADIYKADFQAERHAREKLVEKKEYLQEQLEQLQREFNKL [CC2-LZ]”, the Kd at CC2-LZ worked out at 22 µM. Further, the “FRET signal (in words)” value at Biot-CC2-LZ is “no FRET signal was observed”.
